From US12447154B2, “Use of pyrrolopyrimidine compound for treating hemophagocytic syndrome” (CHIA TAI TIANQING PHARMACEUTICAL GROUP CO., LTD., priority 2020, dated 2025)

System: patient diagnosed with hemophagocytic syndrome
Experiment: Clinical protocol for hemophagocytic syndrome (patient cases)
Assay type: in vivo, human
Method: Example 1. Clinical Protocol for Hemophagocytic Syndrome
Method of administration: orally administered once before breakfast in the morning and once after 12 h, with 28 consecutive days of administration as one treatment cycle.
Drug: the compound of formula I in 5 mg or 20 mg tablets, the compound of formula I being shown as its stereoisomer, a compound of formula II
[drawing 5] 1.2. Inclusion Criteria • 1) Age ≥18 years; ECOG scoring: 0-3; an expected survival of more than 3 months; • 2) A patient unambiguously diagnosed as having a first occurrence or first recurrence of HLH according to the HLH-2004 criteria; • 3) Other medication for HLH, if any, has been interrupted for 2 weeks or more; it has been 4 weeks or more since major surgery, if any; • 4) Laboratory tests should meet the following: blood routine examination: hemoglobin (Hb)≥60 g/L; absolute neutrophil count (ANC)≥0.5×10^9/L; platelet (PLT)≥30×10^9/L; liver function: serum total bilirubin (TBIL)<171 μmol/L; renal function: serum creatinine (Cr)≤1.5×ULN; blood coagulation function: activated partial thromboplastin time (APTT) and international normalized ratio (INR)≤1.5×ULN; • 5) Female patients should agree to take contraceptive measures (such as intrauterine devices [IUD], contraceptives or condoms) during the study and for at least 6 months after the study; serum pregnancy test results should be negative within 7 days before the study, and the patients must not be breastfeeding; male subjects should agree to take contraceptive measures during the study and for at least 6 months after the study; • 6) Voluntary participation, written informed consent and good compliance. 1.3. Evaluation Method
The therapeutic effect was evaluated by referring to the criteria of “2018 HLH Chinese Expert Consensus”. During induction treatment, it was recommended to evaluate the therapeutic effect every 2 weeks.
1.4. Therapeutic Effects Case 1
(§1) A patient diagnosed with hemophagocytic syndrome was given 20 mg/dose of tablets of the compound of formula II according to the administration regimen described in 1.1. The blood was tested regularly for the plasma concentration. The indexes such as blood routine examination results, biochemical profile and blood coagulation were dynamically monitored, and the patient's condition and vital signs were continuously dynamically monitored closely.
as §1, with “15” for “20”

[1] = Case 2, 15 mg/dose tablets orally twice a day, after one administration cycle

N#CC[C@H](C1CCCC1)n1cc(-c2ncnc3[nH]ccc23)c(N)n1 [compound of formula II]
disease status (Case 1, patient, 20 mg/dose tablets orally twice a day (12 h interval), after one administration cycle (28 days)): remained stable
tolerability of the treatment (Case 1, patient, 20 mg/dose tablets orally twice a day, after one administration cycle (28 days)): tolerable
disease status (Case 2, patient, 15 mg/dose tablets orally twice a day (12 h interval), after one administration cycle (28 days)): remained stable
ferritin level decrease [1]: ≥ 25%
sCD25 level decrease (factor) [1]: 3/2
therapeutic effect evaluation (2018 HLH Chinese Expert Consensus criteria) [1]: partial response
tolerability of the treatment [1]: tolerable
